Patent publication US9139557B2, “Carboxamide compounds and their use as calpain inhibitors” (Abbott GmbH & Co. KG, priority 2006, dated 2015)

Assays:
Type in all cases: biochemical
[1] = biological target: T1, calpain-I (Homo sapiens, UniProt P07384); test: Calpain I enzyme inhibition in vitro (kinetic fluorescence assay)
T1 construct: calpain-I—isolated from human erythrocytes; purchased Calbiochem 208713; host or cells: human erythrocytes (tissue isolate)
T1 sequence (P07384 2-714 limits assumed): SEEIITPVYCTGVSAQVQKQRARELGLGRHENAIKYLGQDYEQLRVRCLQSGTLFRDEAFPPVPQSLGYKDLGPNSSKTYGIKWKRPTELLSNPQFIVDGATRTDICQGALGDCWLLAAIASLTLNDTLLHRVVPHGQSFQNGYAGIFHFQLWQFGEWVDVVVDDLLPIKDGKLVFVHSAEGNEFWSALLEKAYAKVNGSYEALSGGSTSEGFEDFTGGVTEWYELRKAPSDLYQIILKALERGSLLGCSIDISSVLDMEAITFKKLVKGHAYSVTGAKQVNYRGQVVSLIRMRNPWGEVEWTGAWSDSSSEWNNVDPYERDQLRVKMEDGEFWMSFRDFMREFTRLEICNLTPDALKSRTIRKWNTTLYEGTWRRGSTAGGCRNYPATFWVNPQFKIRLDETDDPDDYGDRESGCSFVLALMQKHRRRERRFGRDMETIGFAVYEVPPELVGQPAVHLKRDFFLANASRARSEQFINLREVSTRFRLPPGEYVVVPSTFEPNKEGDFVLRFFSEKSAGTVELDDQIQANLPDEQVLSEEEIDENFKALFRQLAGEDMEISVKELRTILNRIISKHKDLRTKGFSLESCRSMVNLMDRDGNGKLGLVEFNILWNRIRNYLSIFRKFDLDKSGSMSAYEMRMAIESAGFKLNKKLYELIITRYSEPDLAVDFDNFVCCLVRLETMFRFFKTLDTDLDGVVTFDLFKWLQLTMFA
T1 sequence (P04632 1-268 partner): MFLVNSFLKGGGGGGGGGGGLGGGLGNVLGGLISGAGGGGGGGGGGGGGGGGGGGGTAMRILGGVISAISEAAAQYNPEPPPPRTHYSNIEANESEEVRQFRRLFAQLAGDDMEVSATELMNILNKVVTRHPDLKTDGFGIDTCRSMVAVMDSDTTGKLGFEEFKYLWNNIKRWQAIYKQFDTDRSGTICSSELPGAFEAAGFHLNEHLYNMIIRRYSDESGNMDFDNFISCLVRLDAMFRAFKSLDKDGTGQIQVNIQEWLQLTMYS
Method: Testing for blockade of the corresponding enzymic activities was carried out by means of kinetic fluorescence assays (excitation 390 nm, emission 460 nm).
Apparent Ki values were calculated from the experimentally determined IC50 values by the Cheng-Prussoff relation assuming a reversible competitive enzyme inhibition. The Km values of the substrates used under the assay conditions indicated above were: 90 μM (Z-Phe-Arg-AMC, cathepsin B), 10 μM (Z-Gly-Pro-Arg-AMC, cathepsin K), 2 μM (Z-Phe-Arg-AMC, cathepsin L), and 30 μM (Z-Val-Val-Arg-AMC, cathepsin S).
The indicated Ki values are averages of the inhibition constants calculated on the basis of 2 to 4 independent dose-effect plots.
• 1. Calpain I: • 20 nM calpain-I—isolated from human erythrocytes (Calbiochem #208713), 100 μM Suc-Leu-Tyr-AMC (Bachem #1-1355) as substrate in buffer with 62 mM imidazole, 0.3 mM CaCl2, 0.10% CHAPS, 0.05% BSA, 1 mM DTT at pH 7.3 and room temperature. • 2. Cathepsin B: • 0.25 nM cathepsin B—isolated from human liver (Calbiochem #219362), 100 μM Z-Phe-Arg-AMC (Bachem #1-1160) as substrate 50 mM MES, 2 mM EDTA, 0.05% Brij 35, 2.5 mM L-cysteine, pH 6.0, room temperature. • 3. […]

[2] = biological target: T2, cathepsin S (Homo sapiens, UniProt P25774); test: Cathepsin S enzyme inhibition in vitro (kinetic fluorescence assay); conditions: Ki(cathepsin S)/Ki(calpain) ratio
T2 construct: purchased Calbiochem 219343; host or cells: E. coli
T2 sequence (P25774 115-331): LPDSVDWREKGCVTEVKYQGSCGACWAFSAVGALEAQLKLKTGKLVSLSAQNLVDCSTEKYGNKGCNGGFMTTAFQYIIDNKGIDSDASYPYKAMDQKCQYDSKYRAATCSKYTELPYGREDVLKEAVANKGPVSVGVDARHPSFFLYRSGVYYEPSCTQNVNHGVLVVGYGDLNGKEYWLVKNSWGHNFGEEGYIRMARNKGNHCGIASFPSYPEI
Summary of the method: (§1)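 Kinetic fluorescence (ex 390/em 460 nm), room temperature: calpain-I (human erythrocyte, 20 nM) with 100 µM Suc-Leu-Tyr-AMC, imidazole/CaCl2 pH 7.3; cathepsin B (liver, 0.25 nM), 100 µM Z-Phe-Arg-AMC; L (liver, 1 nM), 2 µM Z-Phe-Arg-AMC; S (recombinant, 0.5 nM), 20 µM Z-Val-Val-Arg-AMC; cathepsins in MES/EDTA/cysteine pH 6.0. Apparent Ki via Cheng-Prusoff, 2–4 curves averaged.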

[3] = biological target: T3, cathepsin K (Homo sapiens, UniProt P43235); test: Cathepsin K enzyme inhibition in vitro (kinetic fluorescence assay); conditions: Ki(cathepsin K)/Ki(calpain) ratio
T3 construct: purchased Calbiochem 342001; host or cells: E. coli
T3 sequence (P43235 115-329): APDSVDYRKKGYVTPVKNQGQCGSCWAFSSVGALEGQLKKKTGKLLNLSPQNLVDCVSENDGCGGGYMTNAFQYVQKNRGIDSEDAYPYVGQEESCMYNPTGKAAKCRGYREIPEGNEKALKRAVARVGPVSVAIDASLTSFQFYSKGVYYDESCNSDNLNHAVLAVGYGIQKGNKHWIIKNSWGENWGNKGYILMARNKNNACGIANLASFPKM

[4] = biological target: T4, cathepsin L (Homo sapiens, UniProt P07711); test: Cathepsin L enzyme inhibition in vitro (kinetic fluorescence assay); conditions: Ki(cathepsin L)/Ki(calpain) ratio
T4 construct: cathepsin L—isolated from human liver; purchased Calbiochem 219402; host or cells: human liver (tissue isolate)
T4 sequence (P07711 114-333): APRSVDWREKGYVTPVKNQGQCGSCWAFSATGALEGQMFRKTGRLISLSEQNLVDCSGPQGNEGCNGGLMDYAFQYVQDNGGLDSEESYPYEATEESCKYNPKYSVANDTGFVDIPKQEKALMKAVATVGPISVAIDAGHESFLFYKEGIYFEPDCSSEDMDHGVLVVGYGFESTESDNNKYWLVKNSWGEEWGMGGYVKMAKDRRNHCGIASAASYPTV
Summary of the method: as §1

[5] = biological target: T5, cathepsin B (Homo sapiens, UniProt P07858); test: Cathepsin B enzyme inhibition in vitro (kinetic fluorescence assay); conditions: Ki(cathepsin B)/Ki(calpain) ratio
T5 construct: cathepsin B—isolated from human liver; purchased Calbiochem 219362; host or cells: human liver (tissue isolate)
Summary of the method: as §1

SMILES	Ki [1]	Sel cat. S [2]	Sel cat. K [3]	Sel cat. L [4]	Sel cat. B [5]
Cl.NC(=O)C(=O)C(Cc1ccccc1)NC(=O)c1cccnc1-n1cnc(-c2ccc(CN3CCOCC3)cc2)c1 (stereo not drawn) [Example 26, N-(3-Amino-1-benzyl-2,3-dioxopropyl)-2-{4-[4-(morpholin-4-ylmethyl)phenyl]-1H-imidazol-1-yl}nicotinamide hydrochloride]	< 40 nM	++ (++ means a Ki(cathepsin S)/Ki(calpain) ratio of ≧100)	–	–	–
NC(=O)C(=O)C(Cc1ccccc1)NC(=O)c1cccnc1-n1ccc(-c2cc(F)cc(F)c2)n1 (stereo not drawn) [Example 91, N-[3-Amino-2,3-dioxo-1-(phenylmethyl)propyl]-2-[3-(3,5-difluorophenyl)-1H-pyrazol-1-yl]pyridine-3-carboxamide]	–	++ (++ means a Ki(cathepsin S)/Ki(calpain) ratio of ≧100)	+ (+ means 10≦Ki(cathepsin K)/Ki(calpain)<30)	++ (++ means a Ki(cathepsin L)/Ki(calpain) ratio of ≧50)	++ (++ means a Ki(cathepsin B)/Ki(calpain) ratio of ≧30)
